Where “and” joins values, the source holds several entries; their conditions need not be identical. Equal values may be shown once. Inconclusive results and toxic doses are left out. Rule as the data show it: active = T/C of 150% or more; inactive = T/C below 125%.
Test system: L1210 leukemia ip in BDF1 mice, survival T/C
Assay: NCI In Vivo Anticancer Drug Screen. Data for tumor model L1210 Leukemia (intraperitoneal) in B6D2F1 (BDF1) mice
Conditions: endpoint: mean survival time, higher = longer survival
Summary of the method: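 In this screen, tumor-bearing mice given compound are compared to those given vehicle, and their survival values are reported as a treated-to-control quotient.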

[1] = dose: 100.0 mg/kg/injection, schedule: Q04DX003 (ip), vehicle: saline with Tween-80
[2] = dose: 200.0 mg/kg/injection, schedule: Q04DX003 (ip), vehicle: saline with Tween-80
[3] = dose: 400.0 mg/kg/injection, schedule: Q04DX003 (ip), vehicle: saline with Tween-80
[4] = dose: 100.0 mg/kg/injection, schedule: Q04DX003 (ip), vehicle: Klucel (hydroxypropylcellulose) (HPC)
[5] = dose: 200.0 mg/kg/injection, schedule: Q04DX003 (ip), vehicle: Klucel (hydroxypropylcellulose) (HPC)
[6] = dose: 100.0 mg/kg/injection, schedule: Q01DX001 (ip), vehicle: saline
[7] = dose: 200.0 mg/kg/injection, schedule: Q01DX001 (ip), vehicle: saline
[8] = dose: 400.0 mg/kg/injection, schedule: Q01DX001 (ip), vehicle: saline
[9] = dose: 50.0 mg/kg/injection, schedule: Q01DX001 (ip), vehicle: saline
[10] = dose: 100.0 mg/kg/injection, schedule: Q04DX002 (ip), vehicle: Klucel (hydroxypropylcellulose) (HPC)
[11] = dose: 200.0 mg/kg/injection, schedule: Q04DX002 (ip), vehicle: Klucel (hydroxypropylcellulose) (HPC)
[12] = dose: 400.0 mg/kg/injection, schedule: Q04DX002 (ip), vehicle: Klucel (hydroxypropylcellulose) (HPC)

Measured: T/C

Nc1ncnc(N)c1N(C=O)Cc1ccccc1
inactive: dose: 100.0 mg/kg/injection, schedule: Q01DX001 (ip), vehicle: acetone 96 % of control | dose: 200.0 mg/kg/injection, schedule: Q01DX001 (ip), vehicle: acetone 94 % of control | dose: 400.0 mg/kg/injection, schedule: Q01DX001 (ip), vehicle: acetone 91 % of control

OCC1=CCC2c3[nH]c4ccccc4c3CCN2C1 (stereo not drawn)
inactive: [1] 106 % of control | [2] 90 % of control

O=Nc1ccc(NO)cc1
inactive: [1] 98 % of control and 100 % of control | [2] 98 % of control and 100 % of control | [3] 108 % of control and 91 % of control

Cc1cc(C)c(NC(=O)Nc2ccccc2C)c(C)c1
inactive: dose: 100.0 mg/kg/injection, schedule: Q01DX009 (ip), vehicle: Klucel (hydroxypropylcellulose) (HPC) 97 % of control | [4] 108 % of control | dose: 200.0 mg/kg/injection, schedule: Q01DX009 (ip), vehicle: Klucel (hydroxypropylcellulose) (HPC) 103 % of control | [5] 98 % of control | dose: 400.0 mg/kg/injection, schedule: Q01DX009 (ip), vehicle: Klucel (hydroxypropylcellulose) (HPC) 99 % of control | dose: 400.0 mg/kg/injection, schedule: Q04DX003 (ip), vehicle: Klucel (hydroxypropylcellulose) (HPC) 94 % of control

COC(=O)c1c[nH]c(=O)cc1O
inactive: [6] 101 % of control | [7] 98 % of control | [8] 98 % of control

O=C(Nc1cccc(Cl)c1)Oc1ccc(S(=O)(=O)F)cc1Cl
inactive: dose: 100.0 mg/kg/injection, schedule: Q04DX002 (ip), vehicle: saline with Tween-80 94 % of control | dose: 200.0 mg/kg/injection, schedule: Q04DX002 (ip), vehicle: saline with Tween-80 91 % of control

Cc1ccc([I+]c2ccccc2C(=O)[O-])c(C)c1
inactive: [9] 98 % of control | [6] 102 % of control | [7] 104 % of control

COc1cc(C(=O)N(CCCl)N=O)cc(OC)c1OC
inactive: dose: 1.56 mg/kg/injection, schedule: Q01DX009 (ip), vehicle: saline with Tween-80 100 % of control | dose: 3.12 mg/kg/injection, schedule: Q01DX009 (ip), vehicle: saline with Tween-80 100 % of control and 107 % of control | dose: 6.25 mg/kg/injection, schedule: Q01DX009 (ip), vehicle: saline with Tween-80 100 % of control and 104 % of control | dose: 12.5 mg/kg/injection, schedule: Q01DX009 (ip), vehicle: saline with Tween-80 104 % of control | dose: 25.0 mg/kg/injection, schedule: Q04DX003 (ip), vehicle: saline with Tween-80 102 % of control | dose: 50.0 mg/kg/injection, schedule: Q04DX003 (ip), vehicle: saline with Tween-80 89 % of control | [1] 102 % of control and 86 % of control

O=C(O)CCCOc1ccc(Cl)cc1
inactive: [10] 96 % of control | [11] 101 % of control | [12] 104 % of control

CC(=O)NN
inactive: [6] 104 % of control

O=C(CCCCC(=O)N(CCO)CCO)N(CCO)CCO
inactive: dose: 100.0 mg/kg/injection, schedule: Q04DX003 (ip), vehicle: saline 102 % of control | dose: 200.0 mg/kg/injection, schedule: Q04DX003 (ip), vehicle: saline 100 % of control | dose: 400.0 mg/kg/injection, schedule: Q04DX003 (ip), vehicle: saline 102 % of control

CCOC(=O)c1c(/N=C/c2ccc(N(C)C)cc2)sc2c1CCCC2
inactive: [10] 107 % of control | [11] 100 % of control | [12] 104 % of control

N#CCC(N)C(=O)O (stereo not drawn)
inactive: [9] 90 % of control | [6] 96 % of control | [7] 96 % of control

CN1C2CC(OC3CCCCO3)C(C2)N1C (stereo not drawn)
inactive: dose: 100.0 mg/kg/injection, schedule: Q01DX009 (ip), vehicle: saline with Tween-80 95 % of control | [1] 94 % of control | dose: 132.0 mg/kg/injection, schedule: Q04DX003 (ip), vehicle: saline with Tween-80 100 % of control | dose: 200.0 mg/kg/injection, schedule: Q01DX009 (ip), vehicle: saline with Tween-80 100 % of control | [2] 102 % of control | dose: 300.0 mg/kg/injection, schedule: Q04DX003 (ip), vehicle: saline with Tween-80 117 % of control | dose: 400.0 mg/kg/injection, schedule: Q01DX009 (ip), vehicle: saline with Tween-80 93 % of control | [3] 102 % of control

O=S(=O)(O)CC(NCc1ccccc1)c1ccccc1 (stereo not drawn)
inactive: dose: 100.0 mg/kg/injection, schedule: Q04DX003 (ip), vehicle: other 100 % of control | dose: 200.0 mg/kg/injection, schedule: Q04DX003 (ip), vehicle: other 97 % of control | dose: 400.0 mg/kg/injection, schedule: Q04DX003 (ip), vehicle: other 94 % of control

c1ccc2c(c1)OC1OC2Oc2ccccc21
inactive: [6] 97 % of control | dose: 177.0 mg/kg/injection, schedule: Q01DX001 (ip), vehicle: saline 104 % of control and 92 % of control | [7] 101 % of control | dose: 266.0 mg/kg/injection, schedule: Q01DX001 (ip), vehicle: saline 93 % of control and 94 % of control | [8] 88 % of control and 90 % of control | dose: 600.0 mg/kg/injection, schedule: Q01DX001 (ip), vehicle: saline 86 % of control and 92 % of control

CC(C)(C)c1ccccc1OC(=O)Nc1ccc(F)cc1
inactive: dose: 100.0 mg/kg/injection, schedule: Q01DX001 (ip), vehicle: carboxymethylcellulose (CMC) 98 % of control | dose: 100.0 mg/kg/injection, schedule: Q01DX009 (ip), vehicle: carboxymethylcellulose (CMC) 95 % of control and 97 % of control | dose: 100.0 mg/kg/injection, schedule: Q04DX002 (ip), vehicle: carboxymethylcellulose (CMC) 94 % of control and 96 % of control and 106 % of control | dose: 100.0 mg/kg/injection, schedule: Q04DX003 (ip), vehicle: carboxymethylcellulose (CMC) 97 % of control | dose: 200.0 mg/kg/injection, schedule: Q01DX001 (ip), vehicle: carboxymethylcellulose (CMC) 104 % of control | dose: 200.0 mg/kg/injection, schedule: Q01DX009 (ip), vehicle: carboxymethylcellulose (CMC) 105 % of control | dose: 200.0 mg/kg/injection, schedule: Q04DX002 (ip), vehicle: carboxymethylcellulose (CMC) 97 % of control and 98 % of control (2×) | dose: 200.0 mg/kg/injection, schedule: Q04DX003 (ip), vehicle: carboxymethylcellulose (CMC) 97 % of control | dose: 400.0 mg/kg/injection, schedule: Q01DX001 (ip), vehicle: carboxymethylcellulose (CMC) 101 % of control | dose: 400.0 mg/kg/injection, schedule: Q01DX009 (ip), vehicle: carboxymethylcellulose (CMC) 103 % of control | dose: 400.0 mg/kg/injection, schedule: Q04DX002 (ip), vehicle: carboxymethylcellulose (CMC) 92 % of control and 94 % of control and 98 % of control | dose: 400.0 mg/kg/injection, schedule: Q04DX003 (ip), vehicle: carboxymethylcellulose (CMC) 91 % of control

O=C(C#Cc1ccccc1)/C=C/c1ccccc1
inactive: [4] 88 % of control | [5] 98 % of control

O=C(OCc1ccccc1CN1CCOCC1)c1ccc(Br)cc1
inactive: [10] 100 % of control | [11] 92 % of control | [12] 103 % of control

Cc1c2ccccc2cc2cc[n+]3ccccc3c12
inactive: dose: 1.0 mg/kg/injection, schedule: Q01DX015 (ip), vehicle: carboxymethylcellulose (CMC) 102 % of control | dose: 2.0 mg/kg/injection, schedule: Q01DX015 (ip), vehicle: carboxymethylcellulose (CMC) 104 % of control | dose: 4.0 mg/kg/injection, schedule: Q01DX015 (ip), vehicle: carboxymethylcellulose (CMC) 98 % of control | dose: 5.0 mg/kg/injection, schedule: Q01DX001 (ip), vehicle: carboxymethylcellulose (CMC) 101 % of control | dose: 8.0 mg/kg/injection, schedule: Q01DX015 (ip), vehicle: carboxymethylcellulose (CMC) 102 % of control and 119 % of control | dose: 10.0 mg/kg/injection, schedule: Q01DX001 (ip), vehicle: carboxymethylcellulose (CMC) 101 % of control | dose: 16.0 mg/kg/injection, schedule: Q01DX015 (ip), vehicle: carboxymethylcellulose (CMC) 111 % of control | dose: 20.0 mg/kg/injection, schedule: Q01DX001 (ip), vehicle: carboxymethylcellulose (CMC) 110 % of control | dose: 20.0 mg/kg/injection, schedule: Q04DX003 (ip), vehicle: Klucel (hydroxypropylcellulose) (HPC) 110 % of control | dose: 40.0 mg/kg/injection, schedule: Q01DX001 (ip), vehicle: carboxymethylcellulose (CMC) 117 % of control | dose: 40.0 mg/kg/injection, schedule: Q04DX003 (ip), vehicle: Klucel (hydroxypropylcellulose) (HPC) 114 % of control

CC(=O)NCCc1ccc(N)cc1
inactive: [6] 108 % of control | [7] 101 % of control | [8] 98 % of control

CN(CCN(CCCl)c1ccc(N)cc1)c1ccc(N)cc1
inactive: dose: 10.0 mg/kg/injection, schedule: Q04DX003 (ip), vehicle: saline 110 % of control | dose: 20.0 mg/kg/injection, schedule: Q04DX003 (ip), vehicle: saline 110 % of control | dose: 40.0 mg/kg/injection, schedule: Q04DX003 (ip), vehicle: saline 93 % of control

From PubChem BioAssay AID248 (DTP/NCI, 2004)
